Data from article PMC2729922, “Pharmacological Targeting of Native CatSper Channels Reveals a Required Role in Maintenance of Sperm Hyperactivation” (PLoS ONE, 2009).

Molecular target: T1, CatSper channel (CatSper1) (Mus musculus, UniProt A2ARP9+Q80W99+Q8BVN3+Q91ZR5)
T1 construct: native channel in mouse sperm; with CatSper2, CatSper3, CatSper4
Experiment: whole-sperm patch clamp of native CatSper currents; also SBFI and fura-2 photometry (abstract IC50 […] by optical assay)
Assay type: cell-based

T1 sequence (Q91ZR5 whole entry): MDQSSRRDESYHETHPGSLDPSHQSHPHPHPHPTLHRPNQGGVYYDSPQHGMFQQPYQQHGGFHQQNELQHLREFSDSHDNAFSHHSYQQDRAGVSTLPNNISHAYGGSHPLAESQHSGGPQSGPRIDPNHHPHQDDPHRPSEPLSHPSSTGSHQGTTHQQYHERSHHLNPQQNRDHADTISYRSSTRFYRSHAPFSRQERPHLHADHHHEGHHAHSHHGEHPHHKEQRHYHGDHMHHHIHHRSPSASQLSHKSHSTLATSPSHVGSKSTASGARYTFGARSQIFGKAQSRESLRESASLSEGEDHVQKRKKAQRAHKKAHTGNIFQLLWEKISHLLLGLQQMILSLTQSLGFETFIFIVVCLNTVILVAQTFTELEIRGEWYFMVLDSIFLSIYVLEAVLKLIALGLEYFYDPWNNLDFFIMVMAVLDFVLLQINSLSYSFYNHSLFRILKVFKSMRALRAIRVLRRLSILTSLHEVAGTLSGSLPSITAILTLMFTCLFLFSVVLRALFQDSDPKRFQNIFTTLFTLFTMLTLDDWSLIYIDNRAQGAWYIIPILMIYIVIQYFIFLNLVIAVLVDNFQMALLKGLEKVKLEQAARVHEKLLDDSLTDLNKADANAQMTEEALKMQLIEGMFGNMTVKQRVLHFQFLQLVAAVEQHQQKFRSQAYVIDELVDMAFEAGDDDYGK
T1 sequence (A2ARP9 whole entry): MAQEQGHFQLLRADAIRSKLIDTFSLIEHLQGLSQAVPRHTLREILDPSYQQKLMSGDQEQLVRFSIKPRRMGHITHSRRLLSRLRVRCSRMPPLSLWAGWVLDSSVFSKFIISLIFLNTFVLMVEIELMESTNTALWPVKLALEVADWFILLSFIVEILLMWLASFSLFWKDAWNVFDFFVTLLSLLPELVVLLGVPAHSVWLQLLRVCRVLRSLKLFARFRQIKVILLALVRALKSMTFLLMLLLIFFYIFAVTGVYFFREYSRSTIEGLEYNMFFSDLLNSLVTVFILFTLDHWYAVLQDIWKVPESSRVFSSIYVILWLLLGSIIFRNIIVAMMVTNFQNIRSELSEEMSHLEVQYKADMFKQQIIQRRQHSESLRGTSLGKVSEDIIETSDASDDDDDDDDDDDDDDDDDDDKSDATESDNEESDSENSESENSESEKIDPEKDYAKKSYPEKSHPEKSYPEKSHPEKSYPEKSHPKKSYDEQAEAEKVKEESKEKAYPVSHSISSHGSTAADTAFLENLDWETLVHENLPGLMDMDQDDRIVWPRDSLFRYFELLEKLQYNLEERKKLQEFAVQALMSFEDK
T1 sequence (Q80W99 whole entry): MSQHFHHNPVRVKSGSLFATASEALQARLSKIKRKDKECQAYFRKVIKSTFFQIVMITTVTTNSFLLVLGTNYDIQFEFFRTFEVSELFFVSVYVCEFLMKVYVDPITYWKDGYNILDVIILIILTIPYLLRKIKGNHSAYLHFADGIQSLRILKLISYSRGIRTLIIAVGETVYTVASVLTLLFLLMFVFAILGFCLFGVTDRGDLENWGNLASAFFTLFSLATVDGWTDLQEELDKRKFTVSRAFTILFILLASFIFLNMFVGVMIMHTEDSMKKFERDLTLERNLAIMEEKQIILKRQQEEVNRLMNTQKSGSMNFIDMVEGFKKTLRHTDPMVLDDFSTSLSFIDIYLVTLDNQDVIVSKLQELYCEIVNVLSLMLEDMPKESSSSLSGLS
T1 sequence (Q8BVN3 whole entry): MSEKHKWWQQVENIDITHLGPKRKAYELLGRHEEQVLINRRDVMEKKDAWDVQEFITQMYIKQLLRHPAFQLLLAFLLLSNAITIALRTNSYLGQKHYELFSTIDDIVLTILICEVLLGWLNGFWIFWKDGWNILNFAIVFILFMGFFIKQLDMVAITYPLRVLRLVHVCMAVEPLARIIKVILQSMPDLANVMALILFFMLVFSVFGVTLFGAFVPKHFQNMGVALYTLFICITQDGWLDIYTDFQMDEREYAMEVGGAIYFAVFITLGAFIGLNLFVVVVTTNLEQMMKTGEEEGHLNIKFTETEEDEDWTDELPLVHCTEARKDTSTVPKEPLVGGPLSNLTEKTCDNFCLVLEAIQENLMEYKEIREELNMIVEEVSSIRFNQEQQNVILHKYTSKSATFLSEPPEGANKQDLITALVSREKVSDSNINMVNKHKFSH

SMILES: O=C(c1cccs1)c1no[n+]([O-])c1C(=O)c1cccs1 [HC-056456, 3,4-bis(2-thienylcarbonyl)-1,2,5-oxadiazole-2-ium-2-olate]
- IC50: ~15 µM
